The source of these data is article PMC7139731, “Synthesis, Anticancer Evaluation and Structure-Activity Analysis of Novel (E)- 5-(2-Arylvinyl)-1,3,4-oxadiazol-2-yl)benzenesulfonamides” (International Journal of Molecular Sciences, 2020).

Molecules are shown by their SMILES. Where “and” joins values, the source holds several entries; their conditions need not be identical. Equal values may be shown once. Read-outs that look alike come from different tables or passages of the source.

Data set [1] deals with HaCaT noncancerous keratinocyte cell line. Details: method as in PMID 28364658. The settings on record: MTT assay, 72 h incubation; compounds marked [18] ref 18; cited from earlier work. On the technique in general: Formazan colour is commonly taken as a measure of viable cells.
Data set [2] has the same test system. Kind of data set: MTT cell viability assay, 72 h, HaCaT. Format: cell-based. The settings on record: for IC50: Homo sapiens, HaCaT, MTT assay, 72 h incubation, mean ± SD. Here is the method: (§1) Compounds 7–36 and 47–54 were tested regarding their effect on growth of three human cancer cell lines: colon cancer HCT-116, breast cancer MCF-7 and cervical cancer HeLa, as well as on noncancerous keratinocyte cell line HaCaT. Cell viability was measured with MTT assay after 72 h of incubation with tested compound in five concentration 1–100 μM. The MTT test enables us to quantify the living cells by measuring the activity of mitochondrial enzymes, enables reducing tetrazolium dye MTT to purple formazan. In this manner, IC50—molar concentration [µM] that inhibits 50% net cell growth—was determined (Table 1 and Table 2).
(§2) All chemicals, if not stated otherwise, were obtained from Sigma-Aldrich (St. Louis, MO, USA). The MCF-7, HeLa and HaCaT cell lines were purchased from Cell Lines Services (Eppelheim, Germany), the HCT-116 cell line were obtained from ATCC (ATCC-No: CCL-247). Cells were cultured in Dulbecco’s modified Eagle’s medium (DMEM) supplemented with 10% fetal bovine serum, 2 mM glutamine, 100 units/mL penicillin, and 100 μg/mL streptomycin. Cultures were maintained in a humidified atmosphere with 5% CO2 at 37 °C in an incubator (HeraCell, Heraeus, Langenselbold, Germany). Cell viability was determined using the MTT [3-(4,5-dimethylthiazol-2-yl)-2,5-diphenyl-tetrazolium bromide] assay. Stock solutions of the studied compounds were obtained in 100% DMSO. […] Cells were seeded in 96-well plates at a density of 5 × 10^3 cells/well and treated for 72 h with the examined compounds in the concentration range 1–100 μM (1, 10, 25, 50 and 100 μM). Following treatment, MTT (0.5 mg/mL) was added to the medium and cells were further incubated for 2 h at 37 °C. Cells were lysed with DMSO and the absorbance of the formazan solution was measured at 550 nm with a plate reader Victor 1420 multilabel counter, (PerkinElmer, Inc. Waltham, MA USA). […] The experiment was performed in triplicate. Values are expressed as the mean ± SD of at least three independent experiments

Data set [3] has as its system HCT-116 cells (colon cancer). Put plainly: MTT cell viability assay, 72 h, HCT-116. Format: cell-based, human. The settings on record: for IC50: MTT assay, 72 h incubation, mean ± SD. Here is the method: as §1, §2
Data set [4] concerns MCF-7 cells (breast cancer). Put plainly: MTT cell viability assay, 72 h, MCF-7. It is filed as cell-based, human. The settings on record: for IC50: Homo sapiens, MCF7, 72 h, MTT assay, 72 h incubation, mean ± SD. Here is the method:
as §1, §2

The subject of data set [5] is HeLa cells (cervical cancer). Kind of data set: MTT cell viability assay, 72 h, HeLa. Format: cell-based, human. The settings on record: for IC50: Homo sapiens, HeLa, 72 h, MTT assay, 72 h incubation, mean ± SD. Here is the method: as §1, §2

In the case of `NS(=O)(=O)c1cc(-c2nnc(/C=C/c3ccccc3)o2)c(Cl)cc1SCc1ccccc1` [Compound 8], the half-inhibitory concentration (IC50) (commonly the concentration that gives 50% inhibition) in data set [1] is 20 ± 1 µM. Further, the “activity against HaCaT compared with cancer lines” value in data set [2] (in words) is “at the same level as against cancer lines”.
As for `NS(=O)(=O)c1cc(-c2nnc(/C=C/c3c(Cl)cccc3Cl)o2)c(Cl)cc1SCc1ccccc1` [Compound 14], the IC50 in data set [1] is 160 ± 2 µM.
On to `NS(=O)(=O)c1cc(-c2nnc(/C=C/c3ccc(Br)cc3)o2)c(Cl)cc1SCc1ccccc1` [Compound 16], for which, in data set [1], the IC50 was 31 ± 1 µM.
Regarding `NS(=O)(=O)c1cc(-c2nnc(/C=C/c3ccncc3)o2)c(Cl)cc1SCc1ccccc1` [Compound 24, (E)-2-(Benzylthio)-4-chloro-5-(5-(2-(pyridin-4-yl)vinyl)-1,3,4-oxadiazol-2-yl)benzenesulfonamide], the half-inhibitory concentration (IC50) was found to be 31 ± 1 µM in data set [3] (Homo sapiens, HCT-116, 72 h); 225 ± 11 µM in data set [4]; 135 ± 8 µM in data set [5]; 150 ± 8 µM in data set [2].
For `NS(=O)(=O)c1cc(-c2nnc(/C=C/c3ccccn3)o2)c(Cl)cc1SCc1ccccc1` [Compound 28, (E)-2-(Benzylthio)-4-chloro-5-(5-(2-(pyridin-2-yl)vinyl)-1,3,4-oxadiazol-2-yl)benzenesulfonamide], the melting point (usually the temperature, or range, at which the solid turns liquid) is 254 to 257 °C (dec.). In addition, the IC50 in data set [3] (Homo sapiens, HCT-116, 72 h) was found to be 25 ± 1 µM. This compound had an IC50 in data set [4] of 115 ± 3 µM. Besides, in data set [5], inhibition was half-maximal at 130 ± 6 µM (IC50). Moreover, the half-maximal inhibitory concentration (IC50) in data set [2] was determined as 140 ± 10 µM.
As to `NS(=O)(=O)c1cc(-c2nnc(/C=C/c3cccs3)o2)c(Cl)cc1SCc1ccccc1` [Compound 30, (E)-2-(Benzylthio)-4-chloro-5-(5-(2-(thiophen-2-yl)vinyl)-1,3,4-oxadiazol-2-yl)benzenesulfonamide], the half-maximal inhibitory concentration (IC50) in data set [3] (Homo sapiens, HCT-116, 72 h) is 32 ± 2 µM; in data set [4], 66 ± 2 µM; in data set [5] it was 87 ± 3 µM; in data set [2] it was 85 ± 4 µM.
Regarding `NS(=O)(=O)c1cc(-c2nnc(/C=C/c3ccc([N+](=O)[O-])s3)o2)c(Cl)cc1Cl` [Compound 31, (E)-2,4-Dichloro-5-(5-(2-(5-nitrothiophen-2-yl)vinyl)-1,3,4-oxadiazol-2-yl)benzenesulfonamide], the 50% inhibitory concentration (IC50) in data set [3] (Homo sapiens, HCT-116, 72 h) was 0.5 to 4.5 µM; in data set [3], 0.5 µM and 0.52 µM; in data set [2], 8.1 ± 0.5 µM. In data set [3] (compared with compound 29), the “increase of activity towards HCT-116 on addition of nitro group (31 vs 29)” value is on record as “over 200 times”. In addition, the “increase of activity towards MCF-7 on addition of nitro group (31 vs 29)” value in data set [4] (compared with compound 29) was 43 times. The “increase of activity towards HeLa on addition of nitro group (31 vs 29)” value in data set [5] (compared with compound 29) is on record as 54 times.
As for `NS(=O)(=O)c1cc(-c2nnc(/C=C/c3ccc([N+](=O)[O-])s3)o2)c(Cl)cc1SCc1ccccc1` [Compound 32, (E)-2-(Benzylthio)-4-chloro-5-(5-(2-(5-nitrothiophen-2-yl)vinyl)-1,3,4-oxadiazol-2-yl)benzenesulfonamide], the IC50 is 17 ± 1 µM in data set [3] (Homo sapiens, HCT-116, 72 h); 55 ± 3 µM in data set [4]; 58 ± 2 µM in data set [5]; 57 ± 1 µM in data set [2].
The corresponding values for `NS(=O)(=O)c1cc(-c2nnc(/C=C/c3ccco3)o2)c(Cl)cc1Cl` [Compound 33, (E)-2,4-Dichloro-5-(5-(2-(furan-2-yl)vinyl)-1,3,4-oxadiazol-2-yl)benzenesulfonamide] are 33 ± 1 µM, 170 ± 9 µM, 210 ± 8 µM and 200 ± 12 µM.
The corresponding values for `NS(=O)(=O)c1cc(-c2nnc(/C=C/c3ccco3)o2)c(Cl)cc1SCc1ccccc1` [Compound 34, (E)-2-(Benzylthio)-4-chloro-5-(5-(2-(furan-2-yl)vinyl)-1,3,4-oxadiazol-2-yl)benzenesulfonamide] are 27.8 ± 0.3 µM, 62 ± 1 µM, 85 ± 3 µM and 91 ± 3 µM.
Consider `NS(=O)(=O)c1cc(-c2nnc(/C=C/c3ccc([N+](=O)[O-])o3)o2)c(Cl)cc1SCc1ccccc1` [Compound 35, (E)-2-(Benzylthio)-4-chloro-5-(5-(2-(5-nitrofuran-2-yl)vinyl)-1,3,4-oxadiazol-2-yl)benzenesulfonamide], for which the IC50 came out at 4 µM in data set [3] (Homo sapiens, HCT-116, 72 h); 4.1 ± 0.2 µM in data set [3]; 150 ± 8 µM in data set [4]; 69 ± 3 µM in data set [5]; 87 ± 4 µM in data set [2]. Moreover, in data set [3] (selectivity HCT-116 vs HaCaT), the “times more active against HCT-116 than HaCaT” value is listed as 22 times. Also, in data set [3] (selectivity HCT-116 vs HeLa), the “times more active against HCT-116 than HeLa” value was 17 times. Further, the “times more active against HCT-116 than MCF-7” value in data set [3] (selectivity HCT-116 vs MCF-7) worked out at 37 times. For the same compound, the “selectivity index SI (IC50 for HaCaT cell line/IC50 for cancerous cell line)” value in data set [2] (cancer line not given, active derivatives (IC50 for cancer line ≤ 25 µM)) is listed as 22.
Consider `NS(=O)(=O)c1cc(-c2nnc(/C=C/c3ccc[nH]3)o2)c(Cl)cc1Cl` [Compound 36, (E)-5-(5-(2-(1H-Pyrrol-2-yl)vinyl)-1,3,4-oxadiazol-2-yl)-2,4-dichlorobenzenesulfonamide], for which the IC50 amounted to 39 ± 1 µM in data set [3] (Homo sapiens, HCT-116, 72 h); 40 ± 1 µM in data set [4]; 73 ± 3 µM in data set [5]; 98 ± 4 µM in data set [2].
The corresponding values for `NS(=O)(=O)c1ccc(-c2nnc(/C=C/c3ccc(Cl)cc3)o2)cc1` [Compound 48, (E)-4-(5-(4-chlorostyryl)-1,3,4-oxadiazol-2-yl)benzenesulfonamide] are 105 ± 5 µM, 76 ± 4 µM, 25 ± 3 µM and 95 ± 4 µM.
In the same order, the values of `N#Cc1ccc(/C=C/c2nnc(-c3ccc(S(N)(=O)=O)cc3)o2)cc1` [Compound 49, (E)-4-(5-(4-Cyanostyryl)-1,3,4-oxadiazol-2-yl)benzenesulfonamide] are 32 ± 2 µM, 75 ± 4 µM, 99 ± 3 µM and 98 ± 4 µM.
